In ChEMBL document CHEMBL1146703, “Mannopeptimycin esters and carbonates, potent antibiotic agents against drug-resistant bacteria” (2004):
In brackets after ≈: the same amount, converted by molar mass.

Columns and labels:
Enterococcus faecalis [1] = assay: Antibacterial activity against Enterococcus faecalis; Range is 4-16; format: functional
Escherichia coli = assay: Antibacterial activity against Escherichia coli at </=64 ug/mL; No activity; format: functional, organism-based
Staphylococcus aureus [2] = assay: Antibacterial activity against Staphylococcus aureus; Range is 0.5-2; format: functional
Enterococcus faecalis [3] = assay: Antibacterial activity against Enterococcus faecalis; Range is 8-16; format: functional
Staphylococcus aureus [4] = assay: Antibacterial activity against Staphylococcus aureus; Range is 2-8; format: functional
Enterococcus faecalis [5] = assay: Antibacterial activity against Enterococcus faecalis; Range is 1-2; format: functional
Mus musculus = assay: Antibacterial activity against Staphylococcus aureus infection in mouse after i.v. administration (Vancomycin, ED50= 1.0 mg/kg ); format: functional; settings: route intravenous
Staphylococcus aureus [6] = assay: Antibacterial activity against Staphylococcus aureus; Range is 0.5-1; format: functional
Staphylococcus aureus [7] = assay: Antibacterial activity against Staphylococcus aureus; Range is 4-8; format: functional
Enterococcus faecalis [8] = assay: Antibacterial activity against Enterococcus faecalis; format: functional
Enterococcus faecalis [9] = assay: Antibacterial activity against Enterococcus faecalis; Range is 1-4; format: functional
Staphylococcus aureus [10] = assay: Antibacterial activity against Staphylococcus aureus; Range is 1-2; format: functional
Enterococcus faecalis [11] = assay: Antibacterial activity against Enterococcus faecalis; Range is 16-32; format: functional
Staphylococcus aureus [12] = assay: Antibacterial activity against Staphylococcus aureus; format: functional
Enterococcus faecalis [13] = assay: Antibacterial activity against Enterococcus faecalis; Range is 64->64; format: functional
Staphylococcus aureus [14] = assay: Antibacterial activity against Staphylococcus aureus; Range is 2-4; format: functional
Enterococcus faecalis [15] = assay: Antibacterial activity against Enterococcus faecalis; Range is 4-8; format: functional

In the case of CCCCCCC(=O)OC[C@H]1O[C@H](Oc2ccc(C[C@H]3NC(=O)[C@H]([C@@H](C)c4ccccc4)NC(=O)CNC(=O)[C@H](CO)NC(=O)[C@@H]([C@@H](O)[C@@H]4CNC(N)N4[C@H]4O[C@H](CO)[C@@H](O)[C@H](O)[C@@H]4O)NC(=O)[C@H]([C@@H](O)[C@@H]4CNC(N)N4)NC3=O)cc2)[C@@H](O)[C@@H](O)[C@@H]1O[C@H]1O[C@H](CO)[C@@H](O)[C@H](O)[C@@H]1O (stereo partly specified), the MIC (Enterococcus faecalis [1]) is reported as 16 µg/mL (≈ 11.3 µM), the MIC (Escherichia coli) is reported as “No activity” and the MIC (Staphylococcus aureus [2]) is reported as 2 µg/mL (≈ 1.42 µM).

For C[C@@H](c1ccccc1)[C@@H]1NC(=O)CNC(=O)[C@H](CO)NC(=O)[C@@H]([C@@H](O)[C@@H]2CNC(N)N2[C@H]2O[C@H](CO)[C@@H](O)[C@H](O)[C@@H]2O)NC(=O)[C@H]([C@@H](O)[C@@H]2CNC(N)N2)NC(=O)[C@@H](Cc2ccc(O[C@H]3O[C@H](CO)[C@@H](O[C@H]4O[C@H](COC(=O)OCc5ccccc5)[C@@H](O)[C@H](O)[C@@H]4O)[C@H](O)[C@@H]3O)cc2)NC1=O (stereo partly specified), the MIC (Enterococcus faecalis [3]) was 16 µg/mL (≈ 11.2 µM), the MIC (Staphylococcus aureus [4]) was 8 µg/mL (≈ 5.58 µM) and the MIC (Escherichia coli) was “No activity”.

C[C@@H](c1ccccc1)[C@@H]1NC(=O)CNC(=O)[C@H](CO)NC(=O)[C@@H]([C@@H](O)[C@@H]2CNC(N)N2[C@H]2O[C@H](CO)[C@@H](O)[C@H](O)[C@@H]2O)NC(=O)[C@H]([C@@H](O)[C@@H]2CNC(N)N2)NC(=O)[C@@H](Cc2ccc(O[C@H]3O[C@H](CO)[C@@H](O[C@H]4O[C@H](COC(=O)C(c5ccccc5)c5ccccc5)[C@@H](O)[C@H](O)[C@@H]4O)[C@H](O)[C@@H]3O)cc2)NC1=O (stereo partly specified) was tested, and the MIC (Enterococcus faecalis [5]) was 2 µg/mL (≈ 1.34 µM), the ED50 (Mus musculus) was 0.29 mg/kg and the MIC (Escherichia coli) was “No activity”. It also gave an MIC (Staphylococcus aureus [6]) of 1 µg/mL (≈ 0.67 µM).

With CC(C)CC(=O)O[C@@H]1[C@H](O)[C@@H](O[C@H]2[C@H](O)[C@H](O)[C@@H](Oc3ccc(C[C@H]4NC(=O)[C@H]([C@@H](C)c5ccccc5)NC(=O)CNC(=O)[C@H](CO)NC(=O)[C@@H]([C@@H](O)[C@@H]5CNC(N)N5[C@H]5O[C@H](CO)[C@@H](O)[C@H](O)[C@@H]5O)NC(=O)[C@H]([C@@H](O)[C@@H]5CNC(N)N5)NC4=O)cc3)O[C@@H]2CO)O[C@H](CO)[C@H]1O (stereo partly specified) the ED50 (Mus musculus) was 2.6 mg/kg, the MIC (Escherichia coli) was “No activity” and the MIC (Staphylococcus aureus [7]) was 8 µg/mL (≈ 5.78 µM). It also gave an MIC (Enterococcus faecalis [8]) of 64 µg/mL (≈ 46.3 µM).

For CCCCCCC(=O)OC[C@H]1O[C@H](O[C@H]2[C@H](O)[C@H](O)[C@@H](Oc3ccc(C[C@H]4NC(=O)[C@H]([C@@H](C)c5ccccc5)NC(=O)CNC(=O)[C@H](CO)NC(=O)[C@@H]([C@@H](O)[C@@H]5CNC(N)N5[C@H]5O[C@H](CO)[C@@H](O)[C@H](O)[C@@H]5O)NC(=O)[C@H]([C@@H](O)[C@@H]5CNC(N)N5)NC4=O)cc3)O[C@@H]2CO)[C@@H](O)[C@@H](O)[C@@H]1O (stereo partly specified), the ED50 (Mus musculus) was 4 mg/kg, the MIC (Enterococcus faecalis [9]) was 4 µg/mL (≈ 2.83 µM) and the MIC (Escherichia coli) was “No activity”. It also gave an MIC (Staphylococcus aureus [6]) of 1 µg/mL (≈ 0.708 µM).

In the case of CCCC(CCC)C(=O)OC[C@H]1O[C@H](O[C@H]2[C@H](O)[C@H](O)[C@@H](Oc3ccc(C[C@H]4NC(=O)[C@H]([C@@H](C)c5ccccc5)NC(=O)CNC(=O)[C@H](CO)NC(=O)[C@@H]([C@@H](O)[C@@H]5CNC(N)N5[C@H]5O[C@H](CO)[C@@H](O)[C@H](O)[C@@H]5O)NC(=O)[C@H]([C@@H](O)[C@@H]5CNC(N)N5)NC4=O)cc3)O[C@@H]2CO)[C@@H](O)[C@@H](O)[C@@H]1O (stereo partly specified), the ED50 (Mus musculus) is reported as 0.52 mg/kg, the MIC (Escherichia coli) is reported as “No activity” and the MIC (Enterococcus faecalis [8]) is reported as 4 µg/mL (≈ 2.81 µM). For the same compound, the MIC (Staphylococcus aureus [10]) was 2 µg/mL (≈ 1.4 µM).

CC(C)CC(=O)O[C@H]1[C@H](O)[C@H](O)[C@@H](O[C@H]2[C@H](O)[C@H](O)[C@@H](Oc3ccc(C[C@H]4NC(=O)[C@H]([C@@H](C)c5ccccc5)NC(=O)CNC(=O)[C@H](CO)NC(=O)[C@@H]([C@@H](O)[C@@H]5CNC(N)N5[C@H]5O[C@H](CO)[C@@H](O)[C@H](O)[C@@H]5O)NC(=O)[C@H]([C@@H](O)[C@@H]5CNC(N)N5)NC4=O)cc3)O[C@@H]2CO)O[C@@H]1CO (stereo partly specified) was tested, and the ED50 (Mus musculus) was 0.6 mg/kg, the MIC (Escherichia coli) was “No activity” and the MIC (Enterococcus faecalis [11]) was 32 µg/mL (≈ 23.1 µM). The MIC (Staphylococcus aureus [12]) was 4 µg/mL (≈ 2.89 µM).

With CC(C)CC(=O)O[C@@H]1[C@@H](O[C@H]2[C@H](O)[C@H](O)[C@@H](Oc3ccc(C[C@H]4NC(=O)[C@H]([C@@H](C)c5ccccc5)NC(=O)CNC(=O)[C@H](CO)NC(=O)[C@@H]([C@@H](O)[C@@H]5CNC(N)N5[C@H]5O[C@H](CO)[C@@H](O)[C@H](O)[C@@H]5O)NC(=O)[C@H]([C@@H](O)[C@@H]5CNC(N)N5)NC4=O)cc3)O[C@@H]2CO)O[C@H](CO)[C@@H](O)[C@@H]1O (stereo partly specified) the ED50 (Mus musculus) was 3.5 mg/kg, the MIC (Enterococcus faecalis [13]) was 64 µg/mL (≈ 46.3 µM) and the MIC (Escherichia coli) was “No activity”. For the same compound, the MIC (Staphylococcus aureus [12]) was 8 µg/mL (≈ 5.78 µM).

In the case of CCCCCC(=O)OC[C@H]1O[C@H](Oc2ccc(C[C@H]3NC(=O)[C@H]([C@@H](C)c4ccccc4)NC(=O)CNC(=O)[C@H](CO)NC(=O)[C@@H]([C@@H](O)[C@@H]4CNC(N)N4[C@H]4O[C@H](CO)[C@@H](O)[C@H](O)[C@@H]4O)NC(=O)[C@H]([C@@H](O)[C@@H]4CNC(N)N4)NC3=O)cc2)[C@@H](O)[C@@H](O)[C@@H]1O[C@H]1O[C@H](CO)[C@@H](O)[C@H](O)[C@@H]1O (stereo partly specified), the MIC (Escherichia coli) is reported as “No activity”, the MIC (Staphylococcus aureus [7]) is reported as 8 µg/mL (≈ 5.72 µM) and the MIC (Enterococcus faecalis [11]) is reported as 32 µg/mL (≈ 22.9 µM).

For C[C@@H](c1ccccc1)[C@@H]1NC(=O)CNC(=O)[C@H](CO)NC(=O)[C@@H]([C@@H](O)[C@@H]2CNC(N)N2[C@H]2O[C@H](CO)[C@@H](O)[C@H](O)[C@@H]2O)NC(=O)[C@H]([C@@H](O)[C@@H]2CNC(N)N2)NC(=O)[C@@H](Cc2ccc(O[C@H]3O[C@H](CO)[C@@H](O[C@H]4O[C@H](COC(=O)Cc5ccccc5)[C@@H](O)[C@H](O)[C@@H]4O)[C@H](O)[C@@H]3O)cc2)NC1=O (stereo partly specified), the MIC (Enterococcus faecalis [3]) was 16 µg/mL (≈ 11.3 µM), the MIC (Staphylococcus aureus [14]) was 4 µg/mL (≈ 2.82 µM) and the MIC (Escherichia coli) was “No activity”.

In the case of CCCCCC(=O)OC[C@H]1O[C@H](O[C@H]2[C@H](O)[C@H](O)[C@@H](Oc3ccc(C[C@H]4NC(=O)[C@H]([C@@H](C)c5ccccc5)NC(=O)CNC(=O)[C@H](CO)NC(=O)[C@@H]([C@@H](O)[C@@H]5CNC(N)N5[C@H]5O[C@H](CO)[C@@H](O)[C@H](O)[C@@H]5O)NC(=O)[C@H]([C@@H](O)[C@@H]5CNC(N)N5)NC4=O)cc3)O[C@@H]2CO)[C@@H](O)[C@@H](O)[C@@H]1O (stereo partly specified), the ED50 (Mus musculus) is reported as 4 mg/kg, the MIC (Escherichia coli) is reported as “No activity” and the MIC (Enterococcus faecalis [15]) is reported as 8 µg/mL (≈ 5.72 µM). For the same compound, the MIC (Staphylococcus aureus [10]) was 2 µg/mL (≈ 1.43 µM).

C[C@@H](c1ccccc1)[C@@H]1NC(=O)CNC(=O)[C@H](CO)NC(=O)[C@@H]([C@@H](O)[C@@H]2CNC(N)N2[C@H]2O[C@H](CO)[C@@H](O)[C@H](O)[C@@H]2O)NC(=O)[C@H]([C@@H](O)[C@@H]2CNC(N)N2)NC(=O)[C@@H](Cc2ccc(O[C@H]3O[C@H](COC(=O)C(c4ccccc4)c4ccccc4)[C@@H](O[C@H]4O[C@H](CO)[C@@H](O)[C@H](O)[C@@H]4O)[C@H](O)[C@@H]3O)cc2)NC1=O (stereo partly specified) was tested, and the MIC (Escherichia coli) was “No activity”, the MIC (Enterococcus faecalis [15]) was 8 µg/mL (≈ 5.36 µM) and the MIC (Staphylococcus aureus [10]) was 2 µg/mL (≈ 1.34 µM).

In the case of C[C@@H](c1ccccc1)[C@@H]1NC(=O)CNC(=O)[C@H](COC(=O)CCC2CCCC2)NC(=O)[C@@H]([C@@H](O)[C@@H]2CNC(N)N2[C@H]2O[C@H](CO)[C@@H](O)[C@H](O)[C@@H]2O)NC(=O)[C@H]([C@@H](O)[C@@H]2CNC(N)N2)NC(=O)[C@@H](Cc2ccc(O[C@H]3O[C@H](CO)[C@@H](O[C@H]4O[C@H](CO)[C@@H](O)[C@H](O)[C@@H]4O)[C@H](O)[C@@H]3O)cc2)NC1=O (stereo partly specified), the MIC (Escherichia coli) is reported as “No activity”, the MIC (Enterococcus faecalis [8]) is reported as over 64 µg/mL and the MIC (Staphylococcus aureus [12]) is reported as over 64 µg/mL.
